Usually melting point stands for the temperature of the solid-liquid transition. Regarding `CCn1ccc2c(Nc3ccc(Cl)cc3)nc(C#N)nc21` [Example 27, 4-[(4-Chlorophenyl)amino]-7-ethyl-7H-pyrrolo[2,3-d]pyrimidine-2-carbonitrile], the melting point turned out to be 183 °C.

(Values after patent publication US7439240B2, “Purine-or pyrrolol[2,3-d]pyrimidine-2-carbonitiles for treating diseases associated with cysteine protease activity” (AstraZeneca AB, priority 2002, dated 2008).)
